{"source": "patent US4997926A", "about": "“Deaminase-stable anti-retroviral 2-halo-2',3'-dideoxy” (Scripps Clinic and Research Foundation, priority 1987, dated 1991)", "key": {"[1]": {"system": "deoxycytidine kinase and adenosine kinase deficient CEM T cells (clone AraC-8DM10-5)", "format": "in vitro ADME, human", "settings": "3 uM, 4 hours", "experimental": "^1 Human CEM T cells, or variants deficient in either deoxycytidine\nkinase, or deoxycytidine kinase plus adenosine kinase, were incubated at\ndensity of 5 × 10^7 cells/ml in medium containing 3 uM [8^3\nH2-chloro-2',3dideoxyadenosine. After 4 hours, the nucleotides in the\nmethanolsoluble extracts were determined after separation by HPLC, as\ndescribed in the Materials and Methods.\nThe human T lymphoblastoid cell line, CCRF-CEM, and mutants deficient in either deoxycytidine kinase (clone AraC-8D), or deoxycytidine kinase plus adenosine kinase (clone AraC-8DM10-5) were obtained and propagated as described previously [Foley et al., (1965) Cancer, 18:552-529 and Hershfield et al., (1982) J. Biol. Chem., 257:6380-6386]. For metabolic studies, the cells were cultured in RPMI 1640 medium supplemented with 2 mM L-glutamine and 10 percent fetal bovine serum at a density of 2×10^7 cells/ml in the presence of radiolabelled dideoxynucleosides, as indicated earlier. Some cultures were pre-incubatedfor 30 minutes either with 5 uM 2'-deoxycoformycin or 50 uM coformycin. After 4 hours of incubation the cells were harvested by centrifugation.\nThe cell pellets were washed with Hank's balanced salt solution at 4 degrees C., and extracted with 1 ml 60 percent methanol/water at -20 degrees C. for 10 minutes. Initial studies included 2',3'-dideoxyadenosine5'-triphosphate as an internal recovery marker. The nucleotides were fractionated by high performance liquid chromatography on an Whatman Partisil-10 SAX column, applying a gradient of zero to 100 percent buffer B in buffer A. Buffer A was 7 mM potassium phosphate pH 3.4. Buffer B was 0.5 M potassium phosphate, pH 3.4, one M KCl. The flow rate was 1.5 ml/minute, 1 minute fractions were collected. Buffer A was used alone for the first ten fractions after which elution with Buffer B began and was continued through fraction thirty, after which the eluting buffer was completely Buffer B. The nucleoside was eluted by about fraction six. The monophosphate eluted between about fractions fifteen and eighteen, the diphosphate between about fractions twenty-seven and thirty-two, and the triphosphate eluted between about fractions fifty-one and about sixty-five."}, "[2]": {"system": "HIV in deoxycytidine kinase-deficient CEM variant", "assay": "HIV p24 (gag) antigen in deoxycytidine kinase deficient CEM variant", "format": "cell-based", "text": "Open symbols show the effects of the respective same dideoxynucelosides on HIV replication in a deoxycytidine kinase-deficient CEM variant.\nHIV infection of the CEM T lymphoblastoid cell line was monitored by the release of the HIV p24 (gag) protein into the medium, exactly as described previously [Cleveland et al. (1987) J. Clin. Microbiol., 25:416-420 and Fishbein et al. (1981) Biochem. Med., 26:377-386]. The growth inhibiting effects of the nucleosides toward CEM lymphoblasts, and toward the deoxycytidine kinase deficient mutant, were also monitored as described earlier [Carson et al. (1980) Proc. Natl. Acad. Sci. USA, 77:6865-6869]."}}}
{"smiles": "Nc1nc(Cl)nc2c1ncn2[C@H]1CC[C@@H](CO)O1", "note": "[2-chloro-2',3'-dideoxyadenosine]", "values": [{"measurement": "Nucleotide Formed, Diphosphate", "setting": "[1]", "result": 0.7, "unit": "pmols/10^8 cells/4 hrs"}, {"measurement": "Nucleotide Formed, Monophosphate", "setting": "[1]", "result": 0.9, "unit": "pmols/10^8 cells/4 hrs"}, {"measurement": "Nucleotide Formed, Triphosphate", "setting": "[1]", "result": 2.5, "unit": "pmols/10^8 cells/4 hrs"}]}
{"smiles": "Nc1ncnc2c1ncn2[C@H]1CC[C@@H](CO)O1", "note": "[2',3'-dideoxyadenosine, reference compound]", "values": [{"measurement": "protection from HIV infection, p24 (gag) antigen detection", "setting": "[2]", "result": "equivalent anti-HIV activity"}]}
